What was measured:
Format in all cases: in vivo, mouse
[1] = system: liver-derived macrophages; assay: Liver-derived macrophage cell counts in liver sections after i.p. LPS
Procedure: Liver tissue derived from cIAP2^−/− (upper panels) and cIAP2^+/+ mice (lower panels) pre-treated with LPS (35 mg/kg) for 2 hours (a) or 6 hours (b). cell counts (n=5, average of 3 sections (average of 5 fields per section) per mouse, P<0.01) are shown within each anti-F4/80 FITC conjugated antibody stained panel along with the standard deviation.
(§1) To determine the apoptotic sensitivity of cIAP2^−/− macrophages within an LPS-induced pro-inflammatory environment, the peritoneal macrophage cell numbers before and during an endotoxin-elicited response were assessed by trypan blue exclusion, Diff Quik™ staining kit and flow cytometry (using the macrophage marker PE conjugated α-F4/80 antibody). […] However, total lymphocyte cell count numbers (B and T cells) were comparatively unaffected in both animal types (FIG. 5D). In addition, at 5 hours post LPS injection both the peritoneal and splenic macrophages from cIAP2^−/− mice stained ˜100% positive for Annexin V (Table 5). Therefore, peritoneal and splenic macrophages from cIAP2^−/− mice undergoing LPS-induced endotoxic shock were highly sensitive to apoptotic stimuli compared to control littermates, in vivo. Liver-derived macrophages are key mediators of LPS-induced endotoxic shock (7, 12). Therefore, to further investigate the survival status of macrophages within LPS treated cIAP2^−/− mice we examined cell count levels of liver-derived macrophages within liver sections. Macrophage cell count numbers within both cIAP2^−/− and control mice were similar at 2 hours post-IP LPS treatment (FIG. 6A), 235+/−35 and 271+/−29, respectively (n=5, average of 3 sections (average of 5 fields per section) per mouse, P<0.01). However, at the 6 hour time point (FIG. 6B), there was a precipitous drop of liver-derived macrophages of the cIAP2^−/− mice, 21+/−12 versus that of the littermates, 148+/−19 (n=5, average of 3 sections (average of 5 fields per section) per mouse, P<0.01). Therefore, like peritoneal and splenic macrophages, the liver-derived macrophages from cIAP2^−/− are highly sensitive to LPS in vivo.

[2] = system: peritoneal- and splenic-derived macrophages; assay: Percentage and apoptotic status (Annexin V) of peritoneal and splenic macrophages after i.p. LPS
Procedure: as §1
Adult 4-6 week old mice (n=6) were injected i.p. with LPS (35 mg LPS/kg) at time 0 and 5 hours the mice were euthanized and the cells of the peritoneum were collected and stained to determine macrophage, T and B cell percentages. The macrophages were also stained with FITC labeled Annexin V (Immunotech, Marseille, France) to determine apoptotic status.
T and B cells were isolated from mouse lymphoid tissue (spleen) by first mincing and then pressing the tissue through a 10 μm metal mesh and were then counted by using trypan blue exclusion method. Macrophages were harvested from mice using an inter-peritoneal (i.p.) lavage ([…]: 5% FCS, 50 μM β-mercaptoethanol, […] L-glutamine, penicillin and streptomycin, at 4° C.) and washed once (centrifuged at 800 Xg for 15 min) and resuspended at ˜2×10^7 cells/ml for peritoneal macrophages. Subsequently, peritoneal macrophages were layered on 5 ml of room temperature Lympholyte-M (CedarLane, Canada) and centrifuged at 1500×g for 20 min at room temperature. For splenic macrophages 3 ml of the minced and pressed tissue (˜2×10^7 splenocytes/ml) was layered on 5 ml of room temperature Lympholyte-M (CedarLane, Canada) and centrifuged at 1500×g for 20 min at room temperature. Subsequently, either peritoneal or spleen-derived macrophages were collected from the interface layer, washed twice with complete DMEM and re-suspend in 1 ml complete DMEM. The resulting cells were then counted by using typan blue exclusion and Diff Quik™ Stain Kit (IMEB INC, San Marcos, Calif.). Cells (10^5-10^6) were incubated with the following conjugated monoclonal antibodies: α-CD3ε-flourescein isohiocyanate (FITC), CD4-phycoerythin (PE), CD8α-Cy-Chrome, CD69-PE; B229-FITC, B220-PE, CD11b-Cy-Chrome, (Pharmigen) F4/80-FITC and F4/80PE (Cedarlane Laoratories, Hornby, ON, Canada). Flow cytometric analyses were performed on a Coulter XL cytometer (Coulter, Canada). Concentrations of TNF-α and IL-1β, in primary tissue culture supernatants were determined by ELISA kit (R&D Systems).

[3] = system: cIAP2−/− and cIAP2+/+ mice; assay: Serum cytokine levels (ELISA) after i.p. LPS
Procedure: LPS directly activates macrophages to produce large amounts of IL-1β and TNF-α and to mediate a cascade of events leading to endotoxic shock. We therefore assayed the levels of these pro-inflammatory cytokines in serum from cIAP2^−/− mice treated with LPS (35 mg LPS/kg). In cIAP2^−/− mice, IL-1β serum levels peaked at 4 h and then markedly dropped off (Table 4). This was in contrast to littermate controls where IL-1β levels decreased much later. […] As a further study, we also investigated the serum concentrations of IL-12 (Table 4) after an injection of LPS (35 mg/kg), yet again, we observed an attenuation of a macrophage cytokine, IL-12, by the 6 hour time point. Nevertheless, cIAP2^−/− mice did display early outward signs of sepsis, such as eye exudates and ruffled fur; however, their condition quickly ameliorated, corresponding to the observed waning of the LPS-induced inflammatory cytokines seen within the cIAP2^−/− mice.
Adult 4-6 week old mice (n=3), cIAP2^−/− and littermate control mice, were injected i.p. with a LD100 dose of LPS (35 mg LPS/kg). At the appropriate times mice were anesthetized with phenobarbital and killed by cervical dislocation. The plasma was then collected from these animals and used to determine serum concentrations of IL-1β, TNF-α and IL-12 via an ELISA kit (R & D Systems).

[4] = cIAP2+/+ mice, Peritoneal cavity, 0 hrs post-LPS
[5] = cIAP2+/+ mice, Peritoneal cavity, 5 hrs post-LPS
[6] = cIAP2+/+ mice, Spleen, 0 hrs post-LPS
[7] = cIAP2+/+ mice, Spleen, 0 hrs post-LPS (first Spleen line)
[8] = cIAP2−/− mice, Peritoneal cavity, 0 hrs post-LPS
[9] = cIAP2−/− mice, Peritoneal cavity, 5 hrs post-LPS
[10] = cIAP2−/− mice, Spleen, 0 hrs post-LPS
[11] = cIAP2−/− mice, Spleen, 0 hrs post-LPS (first Spleen line)
[12] = cIAP2+/+ mice, 2 hours after i.p. LPS 35 mg/kg
[13] = cIAP2+/+ mice, 6 hours after i.p. LPS 35 mg/kg
[14] = cIAP2+/+ mice, 10 hours after i.p. LPS 35 mg/kg
[15] = cIAP2−/− mice, 2 hours after i.p. LPS 35 mg/kg
[16] = cIAP2−/− mice, 6 hours after i.p. LPS 35 mg/kg
[17] = cIAP2−/− mice, 10 hours after i.p. LPS 35 mg/kg

Substance: lipopolysaccharide [LPS]
- Liver macrophage cell count ([1]; cIAP2−/− mice, 2 hours post-IP LPS (35 mg/kg)): 235+/−35
- Liver macrophage cell count ([1]; cIAP2−/− mice, 6 hour time point post LPS (35 mg/kg)): 21+/−12
- Liver macrophage cell count ([1]; control mice, 2 hours post-IP LPS (35 mg/kg)): 271+/−29
- Liver macrophage cell count ([1]; littermates, 6 hour time point post LPS (35 mg/kg)): 148+/−19
- Percent apoptotic [2, 4]: 10 ± 2%
- Percent macrophage [2, 4]: 54 ± 29%
- Percent apoptotic [2, 5]: 66 ± 8%
- Percent macrophage [2, 5]: 31 ± 17%
- Percent apoptotic [2, 6]: 46 ± 8%
- Percent macrophage [2, 6]: 28 ± 5%
- Percent apoptotic [2, 7]: 5 ± 3%
- Percent macrophage [2, 7]: 33 ± 15%
- Percent apoptotic [2, 8]: 15 ± 3%
- Percent macrophage [2, 8]: 41 ± 24%
- Percent apoptotic [2, 9]: 100 ± 3%
- Percent macrophage [2, 9]: 8 ± 11%
- Percent apoptotic [2, 10]: 98 ± 4%
- Percent macrophage [2, 10]: 24 ± 8%
- Percent apoptotic [2, 11]: 2 ± 5%
- Percent macrophage [2, 11]: 24 ± 11%
- Macrophages positive for Annexin V (apoptotic) ([2]; cIAP2−/− mice, peritoneal and splenic macrophages, 5 hours post LPS injection): ~100%
- IL-1β Serum Levels [3, 12]: 476 ± 24 pg/mL
- IL-12 Serum Leves [3, 12]: 210 ± 17 pg/mL
- TNFα Serum Levels [3, 12]: 1623 ± 348 pg/mL
- IL-1β Serum Levels [3, 13]: 993 ± 158 pg/mL
- IL-12 Serum Leves [3, 13]: 260 ± 31 pg/mL
- TNFα Serum Levels [3, 13]: 502 ± 56 pg/mL
- IL-1β Serum Levels [3, 14]: 669 ± 48 pg/mL
- TNFα Serum Levels [3, 14]: 371 ± 64 pg/mL
- IL-1β Serum Levels [3, 15]: 314 ± 153 pg/mL
- IL-12 Serum Leves [3, 15]: 152 ± 24 pg/mL
- TNFα Serum Levels [3, 15]: 1589 ± 413 pg/mL
- IL-1β Serum Levels [3, 16]: 476 ± 78 pg/mL
- IL-12 Serum Leves [3, 16]: 11 ± 5 pg/mL
- TNFα Serum Levels [3, 16]: 202 ± 89 pg/mL
- IL-1β Serum Levels [3, 17]: 162 ± 21 pg/mL
- TNFα Serum Levels [3, 17]: 8 ± 7 pg/mL
- Time of peak IL-1β serum levels ([3]; cIAP2−/− mice, LPS 35 mg/kg): 4 h
- TNF-α serum levels ([3]; cIAP2−/− mice, by 10 hours, LPS 35 mg/kg): approximately 10 pg/ml
- TNF-α serum levels (stabilized, maintained until death) ([3]; littermate controls, LPS 35 mg/kg): approximately 400 pg/ml

— patent US20060123501A1, “Method for treating inflammatory disorders” (priority 2004, published 2006)
